Here are results for 27 molecules from ChEMBL document CHEMBL1201862, “PubChem BioAssay data set” (2004).

Active and inactive are the calls of the source. For most assays here, no stated cut-off is given here; in the data, actives have a measured EC50 and inactives only a lower limit. Bounds are passed on as bounds.

The target of one test is T1, Protein skinhead-1 (Caenorhabditis elegans, UniProt P34707).
T1 sequence (P34707 whole entry): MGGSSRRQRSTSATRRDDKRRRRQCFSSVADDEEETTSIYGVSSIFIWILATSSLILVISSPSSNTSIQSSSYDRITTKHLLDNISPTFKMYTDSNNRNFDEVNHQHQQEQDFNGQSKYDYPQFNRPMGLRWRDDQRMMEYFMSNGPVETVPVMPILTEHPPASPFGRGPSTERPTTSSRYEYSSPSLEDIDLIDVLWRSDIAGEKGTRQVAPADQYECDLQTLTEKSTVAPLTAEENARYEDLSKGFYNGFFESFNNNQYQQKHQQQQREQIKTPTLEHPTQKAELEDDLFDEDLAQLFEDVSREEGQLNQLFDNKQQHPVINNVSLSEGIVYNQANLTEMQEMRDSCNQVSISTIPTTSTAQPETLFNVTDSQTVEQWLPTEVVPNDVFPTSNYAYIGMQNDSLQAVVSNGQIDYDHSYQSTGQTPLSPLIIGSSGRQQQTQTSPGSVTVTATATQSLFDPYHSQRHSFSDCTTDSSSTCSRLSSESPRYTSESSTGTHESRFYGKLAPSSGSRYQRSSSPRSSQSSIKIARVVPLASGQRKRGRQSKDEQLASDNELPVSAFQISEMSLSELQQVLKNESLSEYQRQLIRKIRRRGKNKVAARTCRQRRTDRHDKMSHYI
In kind it is functional.

Test [1] has as its target T2, Ubiquitin-conjugating enzyme E2 N (Homo sapiens, UniProt P61088).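 Further: Dose-response confirmation in a TR-FRET assay detecting UBC13-driven polyubiquitin chain formation, inhibition measured.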
T2 sequence (P61088 whole entry): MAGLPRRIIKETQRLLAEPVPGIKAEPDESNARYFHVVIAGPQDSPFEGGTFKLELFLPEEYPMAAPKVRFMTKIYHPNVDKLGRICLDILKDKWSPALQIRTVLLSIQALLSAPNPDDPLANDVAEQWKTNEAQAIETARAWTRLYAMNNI
It is filed as functional.

For test [2], the target named is T3, RNA-binding protein pos-1 (Caenorhabditis elegans, UniProt G5EF15).
T3 sequence (G5EF15 whole entry): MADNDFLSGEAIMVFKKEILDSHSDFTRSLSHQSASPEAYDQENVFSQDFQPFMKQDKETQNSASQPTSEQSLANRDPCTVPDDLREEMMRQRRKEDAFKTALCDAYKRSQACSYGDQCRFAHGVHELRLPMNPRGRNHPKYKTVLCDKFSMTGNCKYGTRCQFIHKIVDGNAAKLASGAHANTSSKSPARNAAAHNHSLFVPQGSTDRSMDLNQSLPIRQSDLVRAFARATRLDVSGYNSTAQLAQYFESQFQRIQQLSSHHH
Nature of the test: disruptors of C. elegans POS-1 RNA interaction – biochemical, fluorescence polarization, dose response (AID 1964).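 Further: purified POS-1 fused to maltose binding protein made in E. coli; potency of compounds blocking POS-1 binding to fluorescent RNA.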 Background: In fluorescence polarisation assays a small probe gives low polarisation when free and higher when bound to something large.

For test [3], the target named is T4, Zinc finger protein mex-5 (Caenorhabditis elegans, UniProt Q9XUB2).
T4 sequence (Q9XUB2 whole entry): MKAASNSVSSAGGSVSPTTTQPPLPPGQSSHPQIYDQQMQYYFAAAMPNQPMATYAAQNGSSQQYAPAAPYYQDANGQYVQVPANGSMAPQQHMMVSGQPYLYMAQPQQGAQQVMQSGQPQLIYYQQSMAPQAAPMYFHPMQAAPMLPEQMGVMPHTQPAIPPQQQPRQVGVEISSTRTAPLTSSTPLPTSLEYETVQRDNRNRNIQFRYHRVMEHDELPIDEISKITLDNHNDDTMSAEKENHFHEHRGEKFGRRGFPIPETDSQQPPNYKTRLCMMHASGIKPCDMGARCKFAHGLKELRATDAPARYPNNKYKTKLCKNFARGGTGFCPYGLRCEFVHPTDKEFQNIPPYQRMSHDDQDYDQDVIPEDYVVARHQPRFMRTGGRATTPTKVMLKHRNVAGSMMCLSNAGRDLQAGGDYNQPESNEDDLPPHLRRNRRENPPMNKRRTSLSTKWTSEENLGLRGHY
Put plainly: potency of MEX-5 RNA-binding blockers – biochemical, C. elegans, fluorescence polarization, dose response (AID 1960).

Test [4] in a line: microbe, parasite or virus in culture. It is filed as functional. Particulars: Mycobacterium tuberculosis.
Test [5] is described as follows: cells. In kind it is functional, cell-based.
Test [6] can be described thus: cells. It is filed as functional, cell-based. The source holds these as a separate data set.
Test [7] addresses T5, Polyadenylate-binding protein 1 (Homo sapiens, UniProt P11940). Put plainly: MLLE binding blockers, Cy5 peptide tracer – biochemical, fluorescence polarization, Cy5-PAM2 peptide, secondary, miRNA deadenylation inhibitor project, dose response (AID 602260). In kind it is functional. The following applies: read-out: IC50_Mean.
For test [8], the target named is T5, Polyadenylate-binding protein 1. Nature of the test: MLLE domain peptide-binding blockers, IC50 – biochemical, fluorescence polarization, FITC-PAM2 peptide, dose response (AID 602259). In kind it is functional. The following applies: read-out: IC50_Mean.
Test [9] has as its system Streptococcus sp. 'group A'. Put plainly: Streptococcus pyogenes SK(-)GAS viability under kanamycin – luminescence, BacTiterGlo, confirmation, counter-screen for streptokinase expression inhibitor project, dose response (AID 1900). In kind it is functional, organism-based. (The purpose of a counterscreen is to sort out artefacts and off-target activity.)
A further test concerns the target T6, Streptokinase A (Streptococcus pyogenes serotype M1, UniProt P10520).
T6 sequence (P10520 whole entry): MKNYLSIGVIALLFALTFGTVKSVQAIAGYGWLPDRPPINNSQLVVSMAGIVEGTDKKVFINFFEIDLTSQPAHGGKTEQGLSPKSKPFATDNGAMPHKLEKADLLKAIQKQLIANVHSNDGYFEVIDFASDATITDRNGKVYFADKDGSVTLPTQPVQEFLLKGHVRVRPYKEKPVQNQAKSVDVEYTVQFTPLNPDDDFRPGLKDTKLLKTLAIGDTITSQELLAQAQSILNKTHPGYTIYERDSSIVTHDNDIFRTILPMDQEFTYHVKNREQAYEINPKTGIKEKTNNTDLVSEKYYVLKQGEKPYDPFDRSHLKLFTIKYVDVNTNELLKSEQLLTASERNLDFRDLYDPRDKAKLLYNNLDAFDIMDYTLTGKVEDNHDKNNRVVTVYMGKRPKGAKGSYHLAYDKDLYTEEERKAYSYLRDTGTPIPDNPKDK
Put plainly: viability-normalized secreted streptokinase activity reduction – plasminogen activation absorbance, OD405, dose response (AID 1914).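 Further: secreted streptokinase activity via plasminogen activation per viability signal from cell pellet.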 It is filed as functional, Streptococcus pyogenes M1 GAS.

The subject of the next test is Streptococcus. Nature of the test: GAS UMAA2166 growth inhibition – luminescence, BacTiterGlo, counter-screen for streptokinase expression inhibitor project, dose response (AID 1915).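 Further: potency for reduction of bacterial viability or growth.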 In kind it is functional, organism-based.
The target of test [10] is T7, Replicative DNA helicase DnaB (Mycobacterium tuberculosis, UniProt P9WMR3).
T7 sequence (P9WMR3 whole entry): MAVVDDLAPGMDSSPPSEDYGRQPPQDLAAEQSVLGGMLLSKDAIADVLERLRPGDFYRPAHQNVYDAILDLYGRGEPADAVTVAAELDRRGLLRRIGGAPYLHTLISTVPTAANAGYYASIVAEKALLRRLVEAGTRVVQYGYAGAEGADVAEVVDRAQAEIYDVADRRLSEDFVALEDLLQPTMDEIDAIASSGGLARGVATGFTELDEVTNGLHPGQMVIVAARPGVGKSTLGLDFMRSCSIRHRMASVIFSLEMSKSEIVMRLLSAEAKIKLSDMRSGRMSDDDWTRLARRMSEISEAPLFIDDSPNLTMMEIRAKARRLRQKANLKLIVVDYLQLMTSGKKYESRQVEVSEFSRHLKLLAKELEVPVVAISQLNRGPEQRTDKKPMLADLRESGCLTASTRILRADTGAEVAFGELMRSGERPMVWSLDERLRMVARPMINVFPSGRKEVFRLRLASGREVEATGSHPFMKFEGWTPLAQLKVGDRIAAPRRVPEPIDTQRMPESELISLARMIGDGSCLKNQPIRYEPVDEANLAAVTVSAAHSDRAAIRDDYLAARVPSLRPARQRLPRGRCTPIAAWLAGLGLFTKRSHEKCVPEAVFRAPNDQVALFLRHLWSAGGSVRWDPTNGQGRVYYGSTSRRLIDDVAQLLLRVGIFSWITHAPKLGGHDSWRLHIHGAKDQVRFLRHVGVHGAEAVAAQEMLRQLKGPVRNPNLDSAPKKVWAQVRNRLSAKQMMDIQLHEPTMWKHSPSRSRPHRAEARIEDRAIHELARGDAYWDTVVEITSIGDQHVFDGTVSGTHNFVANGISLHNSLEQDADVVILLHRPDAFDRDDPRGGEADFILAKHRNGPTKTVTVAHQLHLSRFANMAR
Put plainly: DnaB intein splicing inhibitors, dose response, biochemical, cell-free fluorescence (AID 449749). In kind it is functional.

Test [11] in a line: Luminescence Cell-Based Dose Response HTS to Identify Activators of Luciferase Translation or Activity in H4 […] Cells. [Related pubchem assays: 1829 (Project Summary), 1814 (Primary HTS)]. In kind it is functional.
A further test deals with H4. Nature of the test: Luminescence Cell-Based Dose Response HTS to Identify Activators of 5'UTR Stem-Loop Driven Prion Protein mRNA Translation in H4 Neuroglioblastoma Cells. [Related pubchem assays: 1829 (Project Summary), 1814 (Primary HTS)]. Particulars: Homo sapiens. In kind it is functional.

T5 sequence (P11940 whole entry, the tested form may be a part): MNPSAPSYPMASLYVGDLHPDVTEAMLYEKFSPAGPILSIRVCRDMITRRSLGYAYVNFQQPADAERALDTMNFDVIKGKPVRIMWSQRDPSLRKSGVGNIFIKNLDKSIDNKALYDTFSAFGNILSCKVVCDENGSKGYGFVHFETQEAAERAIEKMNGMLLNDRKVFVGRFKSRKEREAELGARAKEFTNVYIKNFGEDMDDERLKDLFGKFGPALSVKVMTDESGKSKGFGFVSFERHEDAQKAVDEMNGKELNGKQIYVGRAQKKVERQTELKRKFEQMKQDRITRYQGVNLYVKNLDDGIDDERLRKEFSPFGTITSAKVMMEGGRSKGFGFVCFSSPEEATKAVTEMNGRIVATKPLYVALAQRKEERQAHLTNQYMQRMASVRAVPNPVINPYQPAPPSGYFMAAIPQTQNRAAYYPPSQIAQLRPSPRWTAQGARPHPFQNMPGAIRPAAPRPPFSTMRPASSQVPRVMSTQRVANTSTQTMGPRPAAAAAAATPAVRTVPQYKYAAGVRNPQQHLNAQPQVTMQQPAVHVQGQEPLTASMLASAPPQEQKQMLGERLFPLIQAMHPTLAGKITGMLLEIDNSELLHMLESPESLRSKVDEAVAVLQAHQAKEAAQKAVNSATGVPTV

Regarding `COCCn1cc(C(=O)NCc2cccs2)c2c3ccccc3n(C)c2c1=O`, at Protein skinhead-1, the IC50 was > 100 µM (inactive).

`CC(C)=CCc1c(O)cc(O)c2c(=O)c(O[C@@H]3O[C@@H](C)[C@H](O)[C@@H](O)[C@H]3O)c(-c3ccc(O)cc3)oc12`: the IC50 in test [1] is > 20 µM (inactive).

In the case of `Cc1ccc(-c2nc(/C=N/c3ccc(O)cc3)c(O)o2)cc1`, the EC50 in [2] and in test [3] was > 300 µM (not active) each time.

Turning to `Clc1ccccc1-c1ccc(CN2CCN(c3ccccc3)CC2)o1`, the IC50 at Protein skinhead-1 was > 100 µM (inactive).

For the molecule `CCc1ccc(-c2nn(-c3cc(Cl)ccc3[N+](=O)[O-])c(=O)c3ccccc23)cc1`, the IC50 at Protein skinhead-1 is > 100 µM (inactive).

Consider `O=C(NCCCN1CCOCC1)c1cc2c3ccccc3nc-2c(-c2cccc(Br)c2)[nH]1`, for which the CC50 in test [4] is 19.4 µM (active). For the same molecule, in [1], the IC50 is > 20 µM (inactive).

As for `CCN(CC)C(=O)c1sc2nc(-c3cccs3)cc(-c3cccs3)c2c1N`, the EC50 in [2] and in [3] was > 300 µM (not active) throughout.

For the molecule `COc1ccc(C(=O)C2CCCN(C(=O)C3CCOCC3)C2)cc1OC` (stereo not given), the EC50 in “cells [5]” and in the test “cells [6]” was > 350 µM (not active) in each case.

Consider `CCCCOc1c(Br)cc(/C=N/O)cc1OCC`, for which the EC50 in [2] and in [3] was > 300 µM (not active) throughout.

`O=C1CCn2c1c(O)c1ccccc1c2=O`: the IC50 in test [7] is > 66 µM (inactive); in [8], 43.6 µM (inactive).

For `CNS(=O)(=O)c1ccc2c(c1)nc(S)n2C`, the IC50 at Protein skinhead-1 is > 100 µM (inactive).

Turning to `OCCN(CCO)c1ccc(C(c2ccccc2Cl)c2ccc(N(CCO)CCO)cc2Cl)c(Cl)c1`, the results for the EC50 (in test [9]; at Streptokinase A; with Streptococcus) were 4.01 µM (active), 4.84 µM (active) and 8.65 µM (active), respectively. For the same molecule, the concentration at half-maximal activity (AC50) – broadly, the concentration giving half of the maximal activity seen – in [10] was 1.91 µM (active). Besides, the IC50 at Protein skinhead-1 was > 100 µM (inactive).

Regarding `O=C(CSc1n[nH]c2c3ccccc3nc-2n1)NCc1ccco1`, the IC50 in test [7] and in test [8] was > 66 µM (inactive) in each case.

Regarding `Cc1ccc(C(C(=O)NC(C)(C)C)N(Cc2ccccc2)C(=O)c2snc(C(N)=O)c2N)o1` (stereo not given), in test [1], the IC50 was > 20 µM (inactive).

As for `COc1ccc(NS(=O)(=O)c2ccc(F)c(Cl)c2)cn1`, the IC50 was 46.2 µM (inactive) in test [7] and 24.2 µM (inactive) in test [8].

With `Cc1cccc(NC(=S)Nc2ccc(Cl)c(Cl)c2)c1`, the EC50 – broadly, the concentration that produces a half-maximal response – at Streptokinase A is 24.5 µM (active). In addition, the IC50 in test [7] and in test [8] was > 66 µM (inactive) throughout.

For the molecule `Fc1ccc(NC(S)=Nc2ccc(Br)cc2)cc1`, the IC50 in [7] and in [8] was > 66 µM (inactive) each time.

On to `CC(C)C(OC(=O)C1=Cc2ccccc2OC1)C(=O)NC1CCCC1` (stereo not given), for which the IC50 on Protein skinhead-1 was > 100 µM (inactive).

Consider `CC1=CC(C)(C)N2C(=O)C3(C(C#N)=C(N)OC4=C3C(=O)CC(C)(C)C4)c3c(C)c(C)cc1c32` (stereo not given), for which the EC50 in test [2] and in [3] was > 300 µM (not active) in each case.

With `CC/C(NN1CCCCCC1)=C1/C(=O)NC(=O)N(c2ccc(C)cc2)C1=O`, the concentration giving a half-maximal response (EC50) in the test “cells [5]” and in the test “cells [6]” was > 350 µM (not active) in each case.

Consider `Cc1nn(CC(C)C)c(Cl)c1C(=O)NC1CCC(C)CC1` (stereo not given), for which the results for the EC50 (in [11]; in the test on H4) were 0.258 µM (active) and 1.19 µM (active), respectively.

Consider `Nc1ccc2c(c1)C/C(=C/c1ccco1)C2=O`, for which the figures for the EC50 in [2] and in test [3] were 23 µM (active) and 14.3 µM (active), respectively.

For the molecule `O=C(C1=C[C@@H](C2CC2)C[C@@H](OCCCCO)O1)N1CCN(Cc2ccc3c(c2)OCO3)CC1`, the EC50 in the test “cells [5]” and in the test “cells [6]” was > 350 µM (not active) in each case.

Turning to `Cn1c(CC(=O)Nc2ccccc2)cc2ccccc21`, the EC50 in the test “cells [5]” and in the test “cells [6]” was > 350 µM (not active) each time.

Consider `COC(=O)c1ccccc1-n1c(CCC(=O)O)ccc1-c1ccc(F)cc1`, for which the EC50 in test [2] and in test [3] was > 300 µM (not active) in each case.

In the case of `CCOc1ccc(-c2nnc(-c3cccs3)o2)cc1`, the IC50 on Protein skinhead-1 was > 100 µM (inactive).

Regarding `CC1CCN(Cc2nnnn2CCCC(=O)NCCc2cnn(C)c2)CC1`, the EC50 in the test “cells [5]” and in “cells [6]” was > 350 µM (not active) throughout.
